Measured values from patent US20220062240A1, “METHODS OF TREATING CANCER USING A CLK INHIBITOR” (BioSplice Therapeutics, Inc., priority 2018, published 2022).
Where two headings read alike, the source gives them in different places.

Tests used:
Type in all cases: cell-based
[1] = system: ovarian cancer (4 cell lines); assay: CellTiter-Glo Viability Assay, ovarian cancer; conditions: Homo sapiens
Experimental: (§1) Fifty-one human cancer cell lines (breast cancer (8 cell lines), colorectal cancer (6 cell lines), haematopoietic & lymphoid tumors (13 cell lines), liver cancer (3 cell lines), lung cancer (4 cell lines), ovarian cancer (4 cell lines), pancreatic cancer (8 cell lines), and prostate cancer (5 cell lines)) were tested to determine the effects of representative compounds of Formulas (I)-(XII) on cellular proliferation, as evaluated using the CellTiter-Glo® Viability Assay.
(§2) For the Cell Viability Assays, cells were plated at 300-3,000 cells/well in 384-well plates in their respective media containing 1% Penicillin-Streptomycin and incubated for four days at 37° C. and 5% CO2. Twenty-eight replicates of DMSO-treated cells served as controls and cells treated with compound were performed in duplicate.
(§3) After incubation, 10 μL of CellTiter-Glo® (Promega) was added to each well allowed to incubate for approximately 12 minutes. This reagent results in cell lysis and generation of a luminescent signal proportional to the amount of ATP present. The amount of ATP is directly proportional to the number of metabolically active, viable cells present in culture. The CellTiter-Glo® Assay generates a luminescent signal, produced by the luciferase reaction (Promega.com).
(§4) After incubation, the luminescence signal was read using an EnVision™ Multilabel Plate Reader (Perkin Elmer). Dose-response curves were generated and EC50 concentration values were calculated using Dotmatics' Studies Software (Bishops Stortford, UK).

MDA-MB-231-Luc = assay: CellTiter-Glo Viability Assay, breast cancer; conditions: Homo sapiens, 96 h
Experimental: as §1, §2, §3, §4

T47D = assay: CellTiter-Glo Viability Assay, breast cancer; conditions: Homo sapiens, 96 h
Experimental: as §1, §2, §3, §4

HCC1599 = assay: CellTiter-Glo Viability Assay, breast cancer; conditions: Homo sapiens, HCC1599, 96 h
Experimental: as §1, §2, §3, §4

CAMA1 = assay: CellTiter-Glo Viability Assay, breast cancer; conditions: Homo sapiens, CAMA-1, 96 h
Experimental: as §1, §2, §3, §4

MCF7 = assay: CellTiter-Glo Viability Assay, breast cancer; conditions: Homo sapiens, MCF7, 96 h
Experimental: as §1, §2, §3, §4

DU4475 = assay: CellTiter-Glo Viability Assay, breast cancer; conditions: Homo sapiens, DU-4475, 96 h
Experimental: as §1, §2, §3, §4

BT-549 = assay: CellTiter-Glo Viability Assay, breast cancer; conditions: Homo sapiens, BT-549, 96 h
Experimental: as §1, §2, §3, §4

ZR-75-1 = assay: CellTiter-Glo Viability Assay, breast cancer; conditions: Homo sapiens, ZR-75-1, 96 h
Experimental: as §1, §2, §3, §4

[2] = system: pancreatic cancer (8 cell lines); assay: CellTiter-Glo Viability Assay, pancreatic cancer; conditions: Homo sapiens
Experimental: as §1, §2, §3, §4

[3] = system: colorectal cancer (6 cell lines); assay: CellTiter-Glo Viability Assay, colorectal cancer; conditions: Homo sapiens
Experimental: as §1, §2, §3, §4

[4] = system: haematopoietic & lymphoid tumors (13 cell lines); assay: CellTiter-Glo Viability Assay, haematopoietic & lymphoid tumors; conditions: Homo sapiens
Experimental: as §1, §2, §3, §4

[5] = system: prostate cancer (5 cell lines); assay: CellTiter-Glo Viability Assay, prostate cancer; conditions: Homo sapiens
Experimental: as §1, §2, §3, §4

[6] = system: liver cancer (3 cell lines); assay: CellTiter-Glo Viability Assay, liver cancer; conditions: Homo sapiens
Experimental: as §1, §2, §3, §4

[7] = system: lung cancer (4 cell lines); assay: CellTiter-Glo Viability Assay, lung cancer; conditions: Homo sapiens
Experimental: as §1, §2, §3, §4

**Q.** For `CN1CCN(c2cc(C(=O)Nc3cc4cc(-c5cnn(C)c5)ccc4cn3)ccn2)CC1` [Compound 12], which EC50 ([1]; OV-90, read-out: Ovarian cancer, EC50 (μM) OV-90) is on record?
**A.** 0.456 µM

**Q.** And the EC50 ([1]; OVCAR-3, read-out: Ovarian cancer, EC50 (μM) OVCAR-3)?
**A.** 0.113 µM

**Q.** And the EC50 ([1]; PA-1, read-out: Ovarian cancer, EC50 (μM) PA1)?
**A.** 0.172 µM

**Q.** And the EC50 ([1]; TOV112D, read-out: Ovarian cancer, EC50 (μM) TOV-112D)?
**A.** 0.152 µM

**Q.** And the EC50 (MDA-MB-231-Luc)?
**A.** 304 nM

**Q.** What about the EC50 (T47D) of the same molecule?
**A.** 427 nM

**Q.** What about the EC50 (HCC1599) of the same molecule?
**A.** 103 nM

**Q.** And the EC50 (CAMA1)?
**A.** 347 nM

**Q.** And the EC50 (MCF7)?
**A.** 600 nM

**Q.** What about the EC50 (DU4475) of the same molecule?
**A.** 182 nM

**Q.** And the EC50 (BT-549)?
**A.** 231 nM

**Q.** And the EC50 (ZR-75-1)?
**A.** 361 nM

**Q.** And the EC50 ([2]; BXPC-3, read-out: Pancreatic cancer, EC50 BxPC3)?
**A.** 420 nM

**Q.** And the EC50 ([2]; CAPAN-1, read-out: Pancreatic cancer, EC50 Capan1)?
**A.** 343 nM

**Q.** And the EC50 ([2]; Capan-2, read-out: Pancreatic cancer, EC50 Capan2)?
**A.** 415 nM

**Q.** What about the EC50 ([2]; MIA PaCa-2, read-out: Pancreatic cancer, EC50 MIA PaCa-2) of the same molecule?
**A.** 131 nM

**Q.** And the EC50 ([2]; PANC-1, read-out: Pancreatic cancer, EC50 PANC-1)?
**A.** 294 nM

**Q.** And the EC50 ([2]; Panc 05.04, read-out: Pancreatic cancer, EC50 PANC 05.04)?
**A.** 340 nM

**Q.** And the EC50 ([2]; read-out: Pancreatic cancer, EC50 UPAFII)?
**A.** 153 nM

**Q.** And the EC50 ([3]; DLD-1, read-out: Colorectal cancer, EC50 (μM) DLD-1)?
**A.** 0.183 µM

**Q.** And the EC50 ([3]; HCT-116, read-out: Colorectal cancer, EC50 (μM) HCT116)?
**A.** 0.138 µM

**Q.** What about the EC50 ([3]; HT-29, read-out: Colorectal cancer, EC50 (μM) HT29) of the same molecule?
**A.** 0.291 µM

**Q.** And the EC50 ([3]; SW48, read-out: Colorectal cancer, EC50 (μM) SW48)?
**A.** 0.09 µM

**Q.** And the EC50 ([3]; SW480, read-out: Colorectal cancer, EC50 (μM) SW480)?
**A.** 0.159 µM

**Q.** And the EC50 ([3]; SW-620, read-out: Colorectal cancer, EC50 (μM) SW620)?
**A.** 0.114 µM

**Q.** What about the EC50 ([4]; DND41, read-out: Haematopoietic & Lymphoid tumors, EC50 (μM) DND-41) of the same molecule?
**A.** 0.208 µM

**Q.** What about the EC50 ([4]; HL-60, read-out: Haematopoietic & Lymphoid tumors, EC50 (μM) HL-60) of the same molecule?
**A.** 0.518 µM

**Q.** What about the EC50 ([4]; JM1, read-out: Haematopoietic & Lymphoid tumors, EC50 (μM) JM1) of the same molecule?
**A.** 0.095 µM

**Q.** What about the EC50 ([4]; JeKo-1, read-out: Haematopoietic & Lymphoid tumors, EC50 (μM) JeKo-1) of the same molecule?
**A.** 0.081 µM

**Q.** And the EC50 ([4]; Jurkat, read-out: Haematopoietic & Lymphoid tumors, EC50 (μM) JURKAT, Clone E6-1)?
**A.** 0.412 µM

**Q.** What about the EC50 ([4]; Kasumi 1, read-out: Haematopoietic & Lymphoid tumors, EC50 (μM) KASUMI-1) of the same molecule?
**A.** 0.156 µM

**Q.** And the EC50 ([4]; MOLT-4, read-out: Haematopoietic & Lymphoid tumors, EC50 (μM) MOLT-4)?
**A.** 0.302 µM

**Q.** What about the EC50 ([4]; MV4-11, read-out: Haematopoietic & Lymphoid tumors, EC50 (μM) MV-4-11) of the same molecule?
**A.** 0.082 µM

**Q.** And the EC50 ([4]; Rec1, read-out: Haematopoietic & Lymphoid tumors, EC50 (μM) REC-1)?
**A.** 0.075 µM

**Q.** What about the EC50 ([4]; SU-DHL-4, read-out: Haematopoietic & Lymphoid tumors, EC50 (μM) SUDHL4) of the same molecule?
**A.** 0.335 µM

**Q.** What about the EC50 ([4]; TF-1, read-out: Haematopoietic & Lymphoid tumors, EC50 (μM) TF-1) of the same molecule?
**A.** 0.386 µM

**Q.** What about the EC50 ([4]; Toledo, read-out: Haematopoietic & Lymphoid tumors, EC50 (μM) TOLEDO) of the same molecule?
**A.** 0.101 µM

**Q.** And the EC50 ([4]; read-out: Haematopoietic & Lymphoid tumors, EC50 (μM) Loucy)?
**A.** 0.155 µM

**Q.** And the EC50 ([5]; 22Rv1, read-out: Prostate cancer EC50 22Rv1)?
**A.** 191 nM

**Q.** What about the EC50 ([5]; DU-145, read-out: Prostate cancer EC50 Du-145) of the same molecule?
**A.** 377 nM

**Q.** What about the EC50 ([5]; LNCaP-Clone-FGC, read-out: Prostate cancer EC50 LNCap clone FGC) of the same molecule?
**A.** 329 nM

**Q.** What about the EC50 ([5]; PC-3, read-out: Prostate cancer EC50 PC3) of the same molecule?
**A.** 237 nM

**Q.** What about the EC50 ([5]; VCaP, read-out: Prostate cancer EC50 VCaP (Sigma)) of the same molecule?
**A.** 462 nM

**Q.** And the EC50 ([6]; HepG2, read-out: Liver cancer, EC50 HEPG2)?
**A.** 309 nM

**Q.** What about the EC50 ([6]; PLC-PRF-5, read-out: Liver cancer, EC50 PLC/PRF/5) of the same molecule?
**A.** 465 nM

**Q.** And the EC50 ([6]; SNU-398, read-out: Liver cancer, EC50 SNU398)?
**A.** 62 nM

**Q.** And the EC50 ([7]; A-427, read-out: Lung cancer, EC50 (μM) A427)?
**A.** 0.277 µM

**Q.** What about the EC50 ([7]; HCC78, read-out: Lung cancer, EC50 (μM) HCC-78) of the same molecule?
**A.** 0.326 µM

**Q.** What about the EC50 ([7]; NCI-H460, read-out: Lung cancer, EC50 (μM) NCI-H460) of the same molecule?
**A.** 0.261 µM

**Q.** And the EC50 ([7]; NCI-H522, read-out: Lung cancer, EC50 (μM) NCI-H522)?
**A.** 0.133 µM
